The supplement of paper PMC5908809

Legend:
[1] = system: normal NK cells expanded with K562-aAPC; assay: percent inhibition of viability; higher = more inhibition; settings: 72 h, IL-2 2.5 ng/mL
Procedure: (§1)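 Drug sensitivity and resistance testing on K562-aAPC-expanded normal NK cells: 5 concentrations (10-fold steps over a 10,000-fold range), 72 h at 37 °C, viability by CellTiter-Glo normalised to DMSO and benzethonium chloride controls; DSS from the fitted curve.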

DERL-7 (IL-2 2.5 ng/mL) [2] = assay: as above; settings: 72 h
IMC-1 (IL-2 20 ng/mL) [3] = assay: as above; settings: 72 h
KAI3 (IL-2 2.5 ng/mL) [4] = assay: as above; settings: 72 h
KHYG-1 (IL-2 2.5 ng/mL) [5] = assay: as above; settings: 72 h
NK-92 (IL-2 2.5 ng/mL) [6] = assay: as above; settings: 72 h
NK-YS (IL-2 2.5 ng/mL) [7] = assay: as above; settings: 72 h
NKL (IL-2 2.5 ng/mL) [8] = assay: as above; settings: 72 h
SNK-6 (IL-2 2.5 ng/mL) [9] = assay: as above; settings: 72 h
YT (IL-2 2.5 ng/mL) [10] = assay: as above; settings: 72 h
[11] = system: normal primary NK cells, pool 1 (3 donors) (IL-2 2.5 ng/mL); assay: as above; settings: 72 h
[12] = system: normal primary NK cells, pool 1 (3 donors), resting (IL-2 0 ng/mL); assay: as above; settings: 72 h
[13] = system: normal primary NK cells, pool 2 (3 donors) (IL-2 2.5 ng/mL); assay: as above; settings: 72 h
[14] = system: normal primary NK cells, pool 3 (3 donors) (IL-2 2.5 ng/mL); assay: as above; settings: 72 h
[15] = system: normal NK cells expanded with K562-aAPC; assay: drug sensitivity score (DSS) (DSS units); higher = more sensitive; extreme values may be limits of the assay; settings: 72 h; IL-2 2.5 ng/mL
Procedure: as §1

DERL-7 (IL-2 2.5 ng/mL) [16] = assay: as above; settings: 72 h
IMC-1 (IL-2 20 ng/mL) [17] = assay: as above; settings: 72 h
KAI3 (IL-2 2.5 ng/mL) [18] = assay: as above; settings: 72 h
KHYG-1 (IL-2 2.5 ng/mL) [19] = assay: as above; settings: 72 h
NK-92 (IL-2 2.5 ng/mL) [20] = assay: as above; settings: 72 h
NK-YS (IL-2 2.5 ng/mL) [21] = assay: as above; settings: 72 h
NKL (IL-2 2.5 ng/mL) [22] = assay: as above; settings: 72 h
SNK-6 (IL-2 2.5 ng/mL) [23] = assay: as above; settings: 72 h
YT (IL-2 2.5 ng/mL) [24] = assay: as above; settings: 72 h
[25] = system: normal primary NK cells, pool 1 (3 donors) (IL-2 2.5 ng/mL); assay: as above; settings: 72 h
[26] = system: normal primary NK cells, pool 1 (3 donors), resting (IL-2 0 ng/mL); assay: as above; settings: 72 h
[27] = system: normal primary NK cells, pool 2 (3 donors) (IL-2 2.5 ng/mL); assay: as above; settings: 72 h
[28] = system: normal primary NK cells, pool 3 (3 donors) (IL-2 2.5 ng/mL); assay: as above; settings: 72 h

Nc1ncnc2c1c(COc1cccc(Cl)c1)nn2C1CCOCC1 (max concentration tested 10000 nM)
percent inhibition of viability [%]
Settings | 1 nM | 10 nM | 100 nM | 1000 nM | 10000 nM
DERL-7 (IL-2 2.5 ng/mL) [2] | -1.45 | -6.37 | 0.64 | 4.1 | 23.4
IMC-1 (IL-2 20 ng/mL) [3] | -0.63 | -0.09 | 1.3 | 2.67 | 5.66
KAI3 (IL-2 2.5 ng/mL) [4] | -4.22 | -5.6 | -4.5 | -2.39 | 10.8
KHYG-1 (IL-2 2.5 ng/mL) [5] | 3.82 | 3.26 | 2.76 | 9.04 | 2.95
NK-92 (IL-2 2.5 ng/mL) [6] | 5.04 | -5.45 | 2.8 | 11.6 | 20.2
NK-YS (IL-2 2.5 ng/mL) [7] | -2.03 | -5.09 | -3.81 | -2.25 | 1.95
NKL (IL-2 2.5 ng/mL) [8] | 2.65 | 1.05 | 6.33 | 7.05 | 28
SNK-6 (IL-2 2.5 ng/mL) [9] | 11.9 | 13.8 | -0.97 | 16.6 | 15
YT (IL-2 2.5 ng/mL) [10] | 5.62 | 8.61 | 4.5 | 8.08 | 29.8
[1] | -1.33 | -1.38 | -0.63 | 3.72 | 15.8
[11] | -5.02 | -2.71 | -7 | -1.66 | 12.2
[12] | -7.87 | -6 | -17.2 | 5.79 | 10.6
[13] | -11.2 | -9.94 | -1.24 | -2.49 | 18.9
[14] | -12.8 | -14.6 | -0.61 | 5.01 | 13

Settings | drug sensitivity score
DERL-7 (IL-2 2.5 ng/mL) [16] | 1.44
IMC-1 (IL-2 20 ng/mL) [17] | 0
KAI3 (IL-2 2.5 ng/mL) [18] | 0
KHYG-1 (IL-2 2.5 ng/mL) [19] | 0
NK-92 (IL-2 2.5 ng/mL) [20] | 1.45
NK-YS (IL-2 2.5 ng/mL) [21] | 0
NKL (IL-2 2.5 ng/mL) [22] | 1.92
SNK-6 (IL-2 2.5 ng/mL) [23] | 0
YT (IL-2 2.5 ng/mL) [24] | 2.23
[15] | 0.66
[25] | 0.03
[26] | 0.06
[27] | 0.39
[28] | 0.39

Cc1ccc(NC(=O)c2ccc(CN3CC[C@H](N(C)C)C3)c(C(F)(F)F)c2)cc1Nc1nccc(-c2cncnc2)n1 [Bafetinib] (max concentration tested 1000 nM)
percent inhibition of viability [%]
Settings | 0.1 nM | 1 nM | 10 nM | 100 nM | 1000 nM
DERL-7 (IL-2 2.5 ng/mL) [2] | -14 | 2.29 | -3.89 | -8.4 | 14.2
IMC-1 (IL-2 20 ng/mL) [3] | -6.49 | -4.43 | -0.85 | 0.31 | 1.78
KAI3 (IL-2 2.5 ng/mL) [4] | 0.47 | 0.29 | 2.91 | 12 | 41.7
KHYG-1 (IL-2 2.5 ng/mL) [5] | -4.48 | -4.63 | 1.74 | 7.43 | 22.3
NK-92 (IL-2 2.5 ng/mL) [6] | -11.6 | -4.05 | 0.45 | 9.61 | 26.8
NK-YS (IL-2 2.5 ng/mL) [7] | -4.77 | -6.95 | -3.78 | -1.77 | 18.9
NKL (IL-2 2.5 ng/mL) [8] | 5.49 | -2.75 | 4.28 | 18 | 50.2
SNK-6 (IL-2 2.5 ng/mL) [9] | -21 | 16.9 | -16.6 | -25.9 | -21.8
YT (IL-2 2.5 ng/mL) [10] | -6.07 | -5.69 | -1.09 | 1.37 | 19.6
[1] | -3.13 | -5.16 | -2.83 | 2.67 | 30.9
[11] | -1.48 | -8.42 | -2.74 | 1.21 | 12
[12] | -11.6 | -4.75 | 5.74 | -0.62 | 2.62
[13] | -9.03 | -9.08 | -6.83 | 2.13 | 11.8
[14] | -3.5 | -5.78 | -5.64 | -5.35 | 13.7

Settings | drug sensitivity score
DERL-7 (IL-2 2.5 ng/mL) [16] | 0.06
IMC-1 (IL-2 20 ng/mL) [17] | 0
KAI3 (IL-2 2.5 ng/mL) [18] | 3.8
KHYG-1 (IL-2 2.5 ng/mL) [19] | 1.5
NK-92 (IL-2 2.5 ng/mL) [20] | 2.35
NK-YS (IL-2 2.5 ng/mL) [21] | 0.42
NKL (IL-2 2.5 ng/mL) [22] | 4.77
SNK-6 (IL-2 2.5 ng/mL) [23] | 0
YT (IL-2 2.5 ng/mL) [24] | 0.72
[15] | 1.77
[25] | 0.1
[26] | 0
[27] | 0.12
[28] | 0.06

COc1ccc(-c2cc3c(C)nc(N)nc3n([C@H]3CC[C@H](OCCO)CC3)c2=O)cn1 (max concentration tested 10000 nM)
percent inhibition of viability [%]
Settings | 1 nM | 10 nM | 100 nM | 1000 nM | 10000 nM
DERL-7 (IL-2 2.5 ng/mL) [2] | 2.23 | 21.8 | 69.6 | 92 | 99.9
IMC-1 (IL-2 20 ng/mL) [3] | -2.45 | -13.7 | -14.2 | -15.4 | 64.2
KAI3 (IL-2 2.5 ng/mL) [4] | 1.74 | 8.43 | 34.4 | 63.8 | 82.1
KHYG-1 (IL-2 2.5 ng/mL) [5] | 2.41 | 2.54 | 15.7 | 68.3 | 103
NK-92 (IL-2 2.5 ng/mL) [6] | 16.6 | 20.7 | 49.1 | 75.7 | 97.2
NK-YS (IL-2 2.5 ng/mL) [7] | 1.08 | -1.02 | 20.1 | 62.4 | 85
NKL (IL-2 2.5 ng/mL) [8] | -11.1 | 4.69 | 32.7 | 66.2 | 93.9
SNK-6 (IL-2 2.5 ng/mL) [9] | -16.2 | -10.9 | 2.3 | 30.8 | 65.3
YT (IL-2 2.5 ng/mL) [10] | 8.27 | 10.8 | 38.5 | 76.5 | 86.5
[1] | -6.01 | 3.97 | 27.8 | 42.7 | 60.2
[11] | -2.26 | 7.17 | 28.9 | 35.8 | 99.4
[12] | 19.4 | 14.7 | 33.7 | 39 | 98.8
[13] | -0.57 | 7.93 | 21.5 | 39.9 | 96.6
[14] | 5.05 | 8.38 | 19.9 | 31.5 | 96.7

Settings | drug sensitivity score
DERL-7 (IL-2 2.5 ng/mL) [16] | 27.6
IMC-1 (IL-2 20 ng/mL) [17] | 2.72
KAI3 (IL-2 2.5 ng/mL) [18] | 16.5
KHYG-1 (IL-2 2.5 ng/mL) [19] | 15
NK-92 (IL-2 2.5 ng/mL) [20] | 22.4
NK-YS (IL-2 2.5 ng/mL) [21] | 14.1
NKL (IL-2 2.5 ng/mL) [22] | 16.6
SNK-6 (IL-2 2.5 ng/mL) [23] | 7.29
YT (IL-2 2.5 ng/mL) [24] | 19.1
[15] | 11.5
[25] | 11.4
[26] | 14.5
[27] | 11
[28] | 8.86
